In patent publication US11608320B2, “Oxazolidinone hydroxamic acid derivatives” (KUWAIT UNIVERSITY, priority 2020, dated 2023) one finds IC50 and melting point data, which are given here for twelve molecules.

In data set [1] the test system is LTC4 release from isolated human monocytes. Kind of data set: Inhibition of LTC4 release from isolated human monocytes (A23187-stimulated). In kind it is cell-based. To be noted: read-out: Inhibitory Activity IC50, Human monocyte LTC4. As for the experimental part:
Inhibition of LTC4 release from isolated human monocytes: Mononuclear cells were first isolated from heparinized fresh blood using the Ficoll-Hypaque gradient centrifugation method. Monocytes were subsequently purified by adherence to plastic according to standard protocols. The purity of the adherent monocytes (CD14+) was routinely confirmed by flow cytometry to be >95% and viability (by trypan blue exclusion method) was routinely >97%. Adherent monocytes were then washed and incubated in 190 μl culture medium RPMI-1640 supplemented with 100 U/ml penicillin, 100 μg/ml streptomycin and 10% heat-inactivated fetal bovine serum (Sigma-Aldrich, St Louis, Mo., USA). […] After a further incubation for 15 min, the culture supernatants were recovered by centrifugation and stored at −40° C. pending LTC4 determination.
(§1) Assay of released leukotrienes/β-hexoseaminidase enzyme: Appropriately diluted supernatants were assayed for the released LTs (LTB4 and LTC4), by the enzyme immunoassay (EIA) method using assay kits supplied by R&D Systems (Minneapolis, Minn., USA) and following the manufacturer's instructions.

Data set [2] deals with T1, recombinant human 5-LO enzyme (Homo sapiens, UniProt P09917).
T1 sequence (P09917 1-674): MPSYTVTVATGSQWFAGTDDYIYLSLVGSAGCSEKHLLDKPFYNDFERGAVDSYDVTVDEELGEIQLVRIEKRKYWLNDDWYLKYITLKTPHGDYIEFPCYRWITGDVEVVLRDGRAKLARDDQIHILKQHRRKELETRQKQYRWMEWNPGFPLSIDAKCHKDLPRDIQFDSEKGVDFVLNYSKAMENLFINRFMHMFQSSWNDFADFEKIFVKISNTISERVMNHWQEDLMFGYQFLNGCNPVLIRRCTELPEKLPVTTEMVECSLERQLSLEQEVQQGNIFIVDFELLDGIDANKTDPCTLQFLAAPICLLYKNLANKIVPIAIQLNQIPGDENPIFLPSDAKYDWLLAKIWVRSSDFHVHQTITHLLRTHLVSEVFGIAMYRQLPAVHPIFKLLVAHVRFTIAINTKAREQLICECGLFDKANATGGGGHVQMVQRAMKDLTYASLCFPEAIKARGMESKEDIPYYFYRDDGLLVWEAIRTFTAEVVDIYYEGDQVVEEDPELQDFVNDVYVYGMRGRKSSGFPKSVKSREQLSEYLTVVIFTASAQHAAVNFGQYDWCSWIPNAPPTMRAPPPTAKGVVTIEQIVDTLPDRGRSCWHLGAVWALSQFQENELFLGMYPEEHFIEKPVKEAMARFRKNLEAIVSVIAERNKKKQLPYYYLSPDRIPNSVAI
Kind of data set: Direct 5-LO inhibitory activity in a cell-free assay (H2DCF-DA fluorescence). In kind it is biochemical. As for the experimental part: H2DCF-DA (60 μM) was first pre-cleaved by incubating with 450 mU/ml recombinant human 5-LO enzyme in Tris buffer (containing 50 mM Tris, pH=7.5, 2 mM EDTA, 2 mM CaCl2), 1 mM dithiothreitol (DTT) and 0.6 U/ml glutathione peroxidase) for 10 min at room temperature. […] After 10 min incubation at room temperature, the reaction was started with the addition of 50 μl of the substrate solution (Tris buffer containing 20 μM ATP and 20 μM arachidonic acid). After a further 20 min, the reaction was terminated with 100 μl acetonitrile. Fluorescence was read at 500 nm excitation and 520 emission, with Novostar® microplate reader (BMG Labtech, Offenburg, Germany). Appropriate controls, including 100 μM nordihydroguaiaretic acid (NDGA), were included to isolate only the 5-LO-attributable, NDGA-inhibitable RFU values.

For data set [3], the system named is LTC4 release from IgE/antigen-activated mouse mast cells (BMMC). Briefly: Inhibition of LTC4 release in allergen/IgE-activated bone marrow-derived mouse mast cells. It is filed as cell-based. To be noted: IgE/antigen (DNP-BSA)-activated BMMC, read-out: Inhibitory Activity IC50, Mouse mast cell LTC4.
Text: Inhibition of LTC4 release and degranulation in allergen/IgE-activated bone marrow-derived mouse mast cells (BMMC): Bone marrow-derived mast cells (BMMC) were generated from pathogen-free 5-7 week old male Balb/c mice according to the method of Davis et al., [2004] (Davis, B. J., et al., (2004), Journal of Immunology, 173: 6914-6920). Essentially, bone marrow cells were obtained by flushing of the femoral bone marrow and cultured in RPMI 1640 medium supplemented with 10% FBS, 100 U/ml penicillin, and 100 μg/ml streptomycin, 25 mM HEPES, 1.0 mM sodium pyruvate, 0.1 mM nonessential amino acids, 0.0035% 2-mercaptoethanol, and 30 ng/ml mouse recombinant IL-3, with culture medium replaced every two days. Cells were used after 4-8 weeks of culture, by which time at least 97% of the cells would have differentiated into mast cells.
The generated BMMCs were seeded at 5×10^4 cells/well in a 96-well flat-bottom culture plate and passively sensitized overnight with 0.5 μg/ml anti-DNP monoclonal IgE antibody (clone SPE-7, Sigma-Aldrich, St. Louis, Mo., USA). The cells were then washed twice to remove any unbound antibody and subsequently re-suspended in reaction buffer (135 mM NaCl, 5 mM KCl, 1.8 mM CaCl2), 1 mM MgCl2, 5.6 mM glucose, 0.05% BSA and 20 mM HEPES, pH 7.4). They were then pre-incubated with the test compounds (0.01-30 μM) or the solvent (0.05% DMSO) for 15 min before being stimulated with the specific antigen, DNP-BSA (30 ng/ml). After 30 min incubation at 37° C., the amount of LTC4 released into the supernatant (as index of 5-LO activity) was determined by ELISA as described below.
as §1

Data set [4] concerns 5-LO-dependent generation of leukotriene B4 (LTB4) from activated human whole blood. Kind of data set: Inhibition of LTB4 generation from LPS/FMLP-activated human whole blood. To be noted: LPS-primed, FMLP-stimulated human whole blood; read-out: Inhibitory Activity IC50, Human whole blood LTB4. In kind it is cell-based. The method, then:
Inhibition of LTB4 generation from human whole blood: All compounds were evaluated for inhibitory activity against 5-LO-dependent generation of leukotriene B4 (LTB4) from activated human whole blood. With ethical approval from the Health Sciences Center Ethical Committee of Kuwait University, heparinized fresh human blood samples from apparently healthy individuals were obtained from the Kuwait Central Blood Bank. Aliquots of 185 μl of whole blood were dispensed into each well of 96-well culture plate containing 5 μl of the priming agent, lipopolysaccharide (LPS) at a final concentration of 1 μg/ml. […] After further incubation for 15 min at 37° C., 5 μl of N-formylmethionyl-leucyl-phenylalanine (FMLP), at […] final concentration, was added to stimulate LT production. The reaction was stopped after 15 min, and the supernatants recovered by centrifugation and stored at −40° C. pending analysis of the LTB4 content.
as §1

The mark [5] stands for this setting: cell-free, recombinant human 5-LO, read-out: Inhibitory Activity IC50, Human recomb. 5-LO.

pIC50: −log10 of the molar value. Read-outs that look alike come from different tables or passages of the source. Where only a bound is given, the exact number is not on record here.

What is called pIC50 is −log10 of the IC50, conventionally taken in molar units. The term melting point denotes the temperature of the solid-liquid transition.

For the molecule `CC(=O)N(O)C[C@H]1CN(c2ccc(N3CCOCC3)c(F)c2)C(=O)O1` [PH-23], the negative logarithm of the IC50 (pIC50) in data set [1] (Monocyte) is 4.73; in data set [2], under 4.52; in data set [3] (Mus musculus), 4.68; in data set [4], 5.48.

With `CCC(=O)N(O)C[C@H]1CN(c2ccc(N3CCOCC3)c(F)c2)C(=O)O1` [PH-199], the pIC50 in data set [1] (Monocyte) is 5.09; in data set [2], 4.93; in data set [3] (Mus musculus), 5.20; in data set [4], 5.85.

As to `CC(C)C(=O)ON(C[C@H]1CN(c2ccc(N3CCOCC3)c(F)c2)C(=O)O1)C(=O)C(C)C` [PH-204], the pIC50 in data set [1] (Monocyte) was under 4.30; in data set [2] (setting [5]) it was under 4.52; in data set [3] (Mus musculus) it was 4.66; in data set [4], 4.97.

`CC(C)C(=O)N(O)C[C@H]1CN(c2ccc(N3CCOCC3)c(F)c2)C(=O)O1` [PH-205]: the negative logarithm of the IC50 (pIC50) was 4.85 in data set [1] (Monocyte), 5.41 in data set [2], 4.86 in data set [3] (Mus musculus) and 5.64 in data set [4].

As to `O=C(ON(C[C@H]1CN(c2ccc(N3CCOCC3)c(F)c2)C(=O)O1)C(=O)C1CC1)C1CC1` [PH-206], the pIC50 in data set [1] (Monocyte) was under 4.30; in data set [2] (setting [5]), under 4.52; in data set [3] (Mus musculus) it was 4.43; in data set [4], 5.10.

In the case of `O=C(C1CC1)N(O)C[C@H]1CN(c2ccc(N3CCOCC3)c(F)c2)C(=O)O1` [PH-211], the negative logarithm of the IC50 (pIC50) in data set [1] (Monocyte) is 5.12; in data set [2], 5.46; in data set [3] (Mus musculus), 5.06; in data set [4], 5.89.

In the case of `NC(=O)N(O)C[C@H]1CN(c2ccc(N3CCOCC3)c(F)c2)C(=O)O1` [PH-238, (R)-1-((3-(3-fluoro-4-morpholinophenyl)-2-oxooxazolidin-5-yl)methyl)-1-hydroxyurea], the melting point lay in the range of 125 to 128 °C. Besides, the pIC50 in data set [1] (Monocyte) is 4.51. The negative-log IC50 (pIC50) in data set [2] (setting [5]) is 4.83. Besides, the negative logarithm of the IC50 (pIC50) in data set [3] (Mus musculus) was 4.62. In addition, the pIC50 in data set [4] is 5.10.

For `CC(C)CC(=O)N(O)C[C@H]1CN(c2ccc(N3CCOCC3)c(F)c2)C(=O)O1` [PH-239, (R)—N-((3-(3-fluoro-4-morpholinophenyl)-2-oxooxazolidin-5-yl)methyl)-N-hydroxy-3-methylbutanamide], the melting point lay in the range of 122 to 124.5 °C. For the same molecule, the pIC50 in data set [2] (setting [5]) was 5.33.

`CCCCC(=O)N(O)C[C@H]1CN(c2ccc(N3CCOCC3)c(F)c2)C(=O)O1` [PH-241, (R)—N-((3-(3-fluoro-4-morpholinophenyl)-2-oxooxazolidin-5-yl)methyl)-N-hydroxypentanamide] came in with a melting point of 121 to 122.5 °C. Moreover, the negative-log IC50 (pIC50) in data set [2] (setting [5]) was 5.48.

As to `O=C(C1CCCC1)N(O)C[C@H]1CN(c2ccc(N3CCOCC3)c(F)c2)C(=O)O1` [PH-244, (R)—N-((3-(3-fluoro-4-morpholinophenyl)-2-oxooxazolidin-5-yl)methyl)-N-hydroxycyclopentane-carboxamide], the melting point lay within 164.5 to 166.5 °C.

As to `O=C(C1CCC1)N(O)C[C@H]1CN(c2ccc(N3CCOCC3)c(F)c2)C(=O)O1` [PH-245, (R)—N-((3-(3-fluoro-4-morpholinophenyl)-2-oxooxazolidin-5-yl)methyl)-N-hydroxycyclobutane-carboxamide], the melting point was 132 to 133.5 °C.

For `CCCCCC(=O)ON(C[C@H]1CN(c2ccc(N3CCOCC3)c(F)c2)C(=O)O1)C(=O)CCCCC` [PH-246], the pIC50 in data set [1] was 5.15; in data set [2] (setting [5]), 4.67; in data set [3], 5.48; in data set [4] it was 5.82.
